According to ChEMBL document CHEMBL1124125, “6-(Alkylamino)-3-aryl-1,2,4-triazolo[3,4-a]phthalazines. A new class of benzodiazepine receptor ligands” (J Med Chem, 1988):

What was measured:
[1] = target: T1, GABA-A receptor; anion channel (Rattus norvegicus) (UniProt O09028+P15431+P18506+P18508+P19969+P20236+P23574+P23576+P28471+P28473+P30191+P62813+P63079+P63138+Q91ZM7+Q9ES14); assay: Relative inhibition of [3H]diazepam binding to GABA-A receptor of rat forebrain in the presence and absence of GABA(10e-4M)
[2] = target: GABA-A receptor; anion channel; assay: Inhibition of [3H]diazepam binding to GABA-A central benzodiazepine receptor of rat brain homogenate
[3] = tested on: Mus musculus; assay: Dose that prevented tonic extensor seizures and death in 50% of the mice.(ip); type: functional
[4] = tested on: Rattus norvegicus; assay: Minimal effective dose (MED, ip) that significantly increased the number of shocks (anticonflict); type: functional; settings: read-out: MED
[5] = Lethal dose when given intraperitoneally in mice; type: toxicity, organism-based; settings: mouse, in vivo, ip
[6] = target: T1, GABA-A receptor; anion channel (Rattus norvegicus); assay: GABA ratio (IC50/IC50 in the presence of 10e-4 GABA).; type: protein-complex assay
[7] = tested on: Mus musculus; assay: Inhibition of Anti-pentylenetetrazole-induced convulsions in mice following i.p. administration.; type: functional; settings: ip
[8] = tested on: Mus musculus; assay: Antagonism of Diazepam muscle relaxant effect by compound (10 mg/kg, ip) was measured as the ratio of fallen/treated mice.; type: functional
[9] = tested on: Mus musculus; assay: Antagonism of Diazepam muscle relaxant effect by compound (30 mg/kg, ip) was measured as the ratio of fallen/treated mice.; type: functional

| Structure (SMILES) | Ratio [1] | Ki [2] [nM] | ED50 [3] [mg/kg] | minimal effective dose [4] [mg/kg] | LD50 [5] [mg/kg] | Ratio [6] | ED50 [7] [mg/kg] | Fallen/treated [8] | Fallen/treated [9] |
| --- | --- | --- | --- | --- | --- | --- | --- | --- | --- |
| COCCN(CCOC)c1nn2c(-c3ccccc3)nnc2c2ccccc12 | 1.6 | 66 | 34.2 | 15 | 200 |  |  |  |  |
| COc1ccc(-c2nnc3c4ccccc4c(N(C)CC(C)O)nn23)cc1 (stereo unspecified) |  | 17 | 9.8 | 10 | 300 | 1.4 |  |  |  |
| CCN(CC)c1nn2c(-c3ccccc3)nnc2c2ccccc12 | 0.9 | 41 | > 100 |  | 600 |  |  |  |  |
| Oc1ccc(-c2nnc3c4ccccc4c(N4CCCC4)nn23)cc1 |  | 11 | > 100 |  | 600 | 1.1 |  |  |  |
| CCN(C)c1nn2c(-c3ccccc3)nnc2c2ccccc12 |  | 14.4 |  |  | 300 | 1.1 | ≥ 50 |  |  |
| COc1cc(OC)c(-c2nnc3c4ccccc4c(N4CCCC4)nn23)cc1OC |  | 1930 | > 50 |  | 300 |  |  |  |  |
| O=[N+]([O-])c1cc(-c2nnc3c4ccccc4c(N4CCCC4)nn23)ccc1Cl |  | 908 | > 50 |  | 200 |  |  |  |  |
| FC(F)(F)c1cccc(-c2nnc3c4ccccc4c(N4CCCC4)nn23)c1 |  | > 3000 |  |  | 600 |  | ≥ 100 |  |  |
| COc1cc(-c2nnc3c4ccccc4c(N4CCCC4)nn23)cc(Br)c1OC |  | > 3000 | > 100 |  | 600 |  |  |  |  |
| CCNc1nn2c(-c3ccccc3)nnc2c2ccccc12 | 0.9 | 37.6 | > 50 |  | 200 |  |  |  |  |
| c1ccc(-c2nnc3c4ccccc4c(N4CCOCC4)nn23)cc1 |  | 14 |  |  | 300 | 0.95 | ≥ 100 |  |  |
| CC(C)Nc1nn2c(-c3ccccc3)nnc2c2ccccc12 |  | 306 | > 75 |  | 400 |  |  |  |  |
| CN1CCN(c2nn3c(-c4ccccc4)nnc3c3ccccc23)CC1 |  | 37.7 | > 50 |  | 300 | 0.9 |  |  |  |
| COCCN(CCOC)c1nn2c(-c3cccc(Cl)c3)nnc2c2ccccc12 |  | 307 |  |  | 600 |  | ≥ 100 |  |  |
| COCCN(CCOC)c1nn2c(-c3cccc(C)c3)nnc2c2ccccc12 |  | 181 | > 100 |  | 300 |  |  |  |  |
| COCCN(CCOC)c1nn2c(-c3ccc(O)cc3)nnc2c2ccccc12 |  | 4.1 | > 50 |  | 600 | 1 |  |  |  |
| Nc1nn2c(-c3ccccc3)nnc2c2ccccc12 |  | 243 |  |  | 600 |  | ≥ 100 |  |  |
| O=C(O)c1ccc(-c2nnc3c4ccccc4c(N4CCCC4)nn23)cc1 |  | > 3000 | > 75 |  | 400 |  |  |  |  |
| COCCN(CCOC)c1nn2c(-c3ccc(OC(C)C)cc3)nnc2c2ccccc12 |  | 142 | 20.7 | 10 | 600 | 1.8 |  |  |  |
| COCCN(CCOC)c1nn2c(-c3ccc(Cl)cc3)nnc2c2ccccc12 |  | 17 | 60.1 |  | 600 | 1.3 |  |  |  |
| COCCN(CCOC)c1nn2c(-c3ccc(OC)c(C)c3)nnc2c2ccccc12 |  | 1820 | > 100 |  | 400 |  |  |  |  |
| NC(=O)c1ccc(-c2nnc3c4ccccc4c(N4CCCC4)nn23)cc1 |  | 113 |  |  | 200 | 1.1 | ≥ 50 |  |  |

| Structure (SMILES) | Ratio [1] | Ki [2] [nM] | ED50 [3] [mg/kg] | minimal effective dose [4] [mg/kg] | LD50 [5] [mg/kg] | Ratio [6] | ED50 [7] [mg/kg] | Fallen/treated [8] | Fallen/treated [9] |
| --- | --- | --- | --- | --- | --- | --- | --- | --- | --- |
| c1ccc(-c2nnc3c4ccccc4c(N4CCCCC4)nn23)cc1 |  | 16 |  |  | 600 | 1 | ≥ 100 |  |  |
| CCOc1cc(OCC)c(-c2nnc3c4ccccc4c(N4CCCC4)nn23)cc1OCC |  | > 3000 | > 50 |  | 300 |  |  |  |  |
| COCCN(CCOC)c1nn2c(-c3ccc(F)cc3)nnc2c2ccccc12 |  | 20 |  |  | 600 | 1.5 | 60.1 |  |  |
| CCCCCOc1ccc(-c2nnc3c4ccccc4c(N4CCCC4)nn23)cc1OC |  | > 3000 | > 50 |  | 200 |  |  |  |  |
| N#Cc1ccc(-c2nnc3c4ccccc4c(N4CCCC4)nn23)cc1 |  | 102 |  |  | 600 | 1.1 | ≥ 100 |  |  |
| CCOc1c(Br)cc(Br)cc1-c1nnc2c3ccccc3c(N3CCCC3)nn12 |  | > 3000 | > 100 |  | 600 |  |  |  |  |
| Cc1ccc(-c2nnc3c4ccccc4c(N4CCCC4)nn23)cc1C |  | 1970 | > 50 |  | 300 |  |  |  |  |
| c1ccc(-c2ccc(-c3nnc4c5ccccc5c(N5CCCC5)nn34)cc2)cc1 |  | > 3000 | > 75 |  | 400 |  |  |  |  |
| CC(=O)Nc1ccc(-c2nnc3c4ccccc4c(N4CCCC4)nn23)cc1 |  | 36 |  |  | 600 | 1.1 | ≥ 100 |  |  |
| CN(C)c1ccc(-c2nnc3c4ccccc4c(N4CCCC4)nn23)cc1 |  | 1720 |  |  | 300 |  | ≥ 75 |  |  |
| COCCNc1nn2c(-c3ccc(OC)cc3)nnc2c2ccccc12 |  | 5.4 |  |  | 200 | 1.1 | ≥ 50 |  |  |
| c1ccc(-c2nnc3c4ccccc4c(N4CCCC4)nn23)cc1 |  | 15.6 | > 75 |  | 400 | 1.1 |  | 4 | 2 |
| c1ccc(CNc2nn3c(-c4ccccc4)nnc3c3ccccc23)cc1 |  | 243 | > 75 |  | 400 |  |  |  |  |
| Brc1ccccc1-c1nnc2c3ccccc3c(N3CCCC3)nn12 |  | 760 | > 100 |  | 600 |  |  |  |  |
| CNc1nn2c(-c3ccccc3)nnc2c2ccccc12 | 1 | 46.3 | > 60 |  | 300 |  |  |  |  |
| CCCCNc1nn2c(-c3ccccc3)nnc2c2ccccc12 |  | 243 |  |  | 600 |  | ≥ 100 |  |  |
| COCCN(CCOC)c1nn2c(-c3ccc(C)cc3)nnc2c2ccccc12 |  | 44 |  | 10 | 400 | 1.9 | 20.4 |  |  |
| COc1ccc(-c2nnc3c4ccccc4c(N4CCCC4)nn23)cc1OC |  | > 3000 | > 100 |  | 500 |  |  |  |  |
| CC(C)(C)Nc1nn2c(-c3ccccc3)nnc2c2ccccc12 |  | 565 |  |  | 300 |  | ≥ 50 |  |  |
| COCCN(CCOC)c1nn2c(-c3ccc(N(C)C)cc3)nnc2c2ccccc12 |  | 2650 |  |  | 200 |  | 20 |  |  |
| CN(C)c1nn2c(-c3ccccc3)nnc2c2ccccc12 | 1.1 | 20.8 | > 75 |  | 400 |  |  | 5 | 2 |
| CN(C)c1ccc(-c2nnc3c4ccccc4c(N4CCCC4)nn23)c(Cl)c1 |  | 393 | > 100 |  | 600 |  |  |  |  |
